Here are results for three compounds from patent US10966426B2, “Herbicidal compositions comprising phenylpyrimidines” (BASF SE, priority 2016, dated 2021).

Like-named read-outs stand apart in the source and are kept apart here.

Assay type in all cases: in vivo
The subject of one test is Stellaria media. Kind of test: greenhouse post-emergence treatment, STEME. The settings on record: Stellaria media. Summed up:
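Loamy sand, ~3.0% humus; species sown separately; treated at 3–15 cm height; 10% w/w EC diluted in water; 10-25° C./20-35° C. per species; 2–4 wk; visual 0–100 rating.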

Test [1] has as its system Galium aparine. Kind of test: greenhouse pre-emergence treatment, GALAP. As to conditions: Galium aparine, 480 h, 20 DAT, GALAP. Summed up:
(§1)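 Damage rated on 0 to 100 scale (0 = normal growth, 100 = no emergence or total above-ground kill) after 2-4 weeks at species-dependent 10-25° C or 20-35° C. Seeds sown per species in loamy sand, ~3.0% humus, treated right after sowing with aqueous spray of single actives or 10% emulsion-concentrate mixtures, then hooded; additive expectation by Colby.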

The next test has as its system Setaria viridis. Kind of test: greenhouse pre-emergence treatment, SETVI. As to conditions: Setaria viridis, 480 h, 31.25 gai/ha (EC 750 g/l), 20 DAT, SETVI, Table X1, read-out: % activity, solo application. Summed up: as §1
For another test, the system named is Digitaria sanguinalis. The test is described as follows: greenhouse post-emergence treatment, DIGSA. The settings on record: Digitaria sanguinalis, read-out: % activity. The gist of the method: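 Plants were grown in pots of loamy sand with approximately 3.0% humus, either sown directly or transplanted as seedlings a few days before treatment, and sprayed with water-based treatments. They were kept at 10-25° C. or 20-35° C. depending on species and rated visually after 2 to 4 weeks on a 0–100 scale (100 = no emergence or complete destruction of above-ground parts).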

A further test has as its system Helianthus annuus. The test is described as follows: greenhouse post-emergence treatment, HELAN. The settings on record: for % activity: cinmethylin solo (EC 750 g/l), 21 DAT. The method, then: The culture containers used were plastic pots containing loamy sand with approximately 3.0% of humus as substrate. The seeds of the test plants were sown separately for each species.
For the post-emergence treatment, the test plants were grown to a plant height of from 3 to 15 cm, depending on the plant habit, and only then treated with the active compounds which had been suspended or emulsified in water. To this end, the test plants were either sown directly, and grown in the same containers, or they were first grown separately as seedlings and transplanted into the test containers a few days prior to treatment.
Depending on the species, the plants were kept at 10-25° C. and 20-35° C., respectively.
The test period extended over 2 to 4 weeks. During this time, the plants were tended and their response to the individual treatments was evaluated.
Evaluation was carried out using a scale from 0 to 100. 100 means no emergence of the plants, or complete destruction of at least the above-ground parts, and 0 means no damage or normal course of growth. A good herbicidal activity is given at values of at least 70, and very good herbicidal activity is given at values of at least 85.
The respective stated components A and B, and if appropriate, C were formulated as a 10% by weight strength emulsion concentrate and, with addition of the amount of solvent system, introduced into the spray liquor used for applying the active compound. In the examples, the solvent used was water.
In the examples below, using the method of S. R. Colby (1967) “Calculating synergistic and antagonistic responses of herbicide combinations”, Weeds 15, p. 22ff., the value E, which is expected if the activity of the individual active compounds is only additive, was calculated. E=X+Y−(X·Y/100) where X=effect in percent using herbicide A at an application rate a; • Y=effect in percent using herbicide B at application rate b; • E=expected effect (in %) of herbicide A+herbicide B at application rates a+b.

A further test has as its system Avena fatua. The test is described as follows: greenhouse pre-emergence treatment, AVEFA. The settings on record: Avena fatua, 480 h, 20 DAT, AVEFA. Summed up:
as §1

The test system of a further test is Polygonum convolvulus. The test is described as follows: greenhouse pre-emergence treatment, POLCO. As to conditions: Fallopia convolvulus, 480 h, 20 DAT, POLCO. The gist of the method:
as §1

The subject of another test is Echinocloa crus-galli. The test is described as follows: greenhouse post-emergence treatment, ECHCG. The settings on record: Echinochloa crus-galli, 480 h, 20 DAT. Summed up: (§2)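 Foliar application to greenhouse-grown plants 3–15 cm tall in humus-containing loamy sand; response assessed on a 0–100 scale after 2–4 weeks, with Colby's E=X+Y−(X·Y/100) as the additive expectation.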

The subject of test [2] is Galium aparine. Kind of test: greenhouse post-emergence treatment, GALAP. The settings on record: Galium aparine, 480 h, GALAP, 20 DAT. The gist of the method: as §2
The mark [3] stands for this setting: 62.5 gai/ha (EC 750 g/l), Table X1, read-out: % activity, solo application.
Setting [4] is: 125 gai/ha (EC 750 g/l), Table X1, read-out: % activity, solo application.
Where [5] appears, read: flufenacet SC 500 g/l solo 62.5 gai/ha, read-out: % activity.

For `Cc1ccccc1CO[C@@H]1C[C@@]2(C(C)C)CC[C@]1(C)O2` (racemic) [cinmethylin], the pest or weed control at 62.5 g/ha came out at 0% in the test with Stellaria media (504 h, read-out: % activity) and 0% in the test on Digitaria sanguinalis (504 h, DIGSA, 21 DAT, solo cinmethylin (EC 750 g/l) 62.5 gai/ha). Besides, the pest or weed control at 125 g/ha with Stellaria media (504 h, read-out: % activity) is 10%; in the test on Digitaria sanguinalis (504 h, DIGSA, 21 DAT, solo cinmethylin (EC 750 g/l) 125 gai/ha), 15%. The % herbicidal activity (weed control, 0-100 scale) at 62.5 g/ha in the test on Galium aparine [1] (setting [3]) worked out at 0%. The % herbicidal activity (weed control, 0-100 scale) at 125 g/ha in the test with Galium aparine [1] (setting [4]) was determined as 20%. Moreover, the inhibition at 31.25 g/ha was determined as 85% with Setaria viridis and 0% in the test with Polygonum convolvulus (31.25 gai/ha (EC 750 g/l), Table X1, read-out: % activity, solo application). Also, the pest or weed control at 250 g/ha with Digitaria sanguinalis (504 h, DIGSA, 21 DAT, solo cinmethylin (EC 750 g/l) 250 gai/ha) came out at 20%. The “% activity” value is recorded as 30% in the test with Helianthus annuus (62.5 gai/ha, HELAN) and 60% with Helianthus annuus (500 gai/ha, HELAN). The inhibition at 62.5 g/ha amounted to 10% in the test on Avena fatua (setting [3]) and 0% in the test on Polygonum convolvulus (setting [3]). In the test on Polygonum convolvulus (setting [4]), the inhibition at 125 g/ha is 0%. In addition, the inhibition at 250 g/ha with Polygonum convolvulus (250 gai/ha (EC 750 g/l), Table X1, read-out: % activity, solo application) stood at 0%.

Consider `CC(C)N(C(=O)COc1nnc(C(F)(F)F)s1)c1ccc(F)cc1` [flufenacet], for which the % herbicidal activity (weed control, 0-100 scale) at 15.6 g/ha with Galium aparine [1] (flufenacet SC 500 g/l solo 15.6 gai/ha) was determined as 0%. In addition, the % herbicidal activity (weed control, 0-100 scale) at 31.25 g/ha with Galium aparine [1] (flufenacet SC 500 g/l solo 31.25 gai/ha) is 0%. For the same compound, in the test on Galium aparine [1] (setting [5]), the % herbicidal activity (weed control, 0-100 scale) at 62.5 g/ha was determined as 0%. In the test on Galium aparine [1] (flufenacet SC 500 g/l solo 125 gai/ha, read-out: % activity), the % herbicidal activity (weed control, 0-100 scale) at 125 g/ha was determined as 40%. For the same compound, the inhibition at 62.5 g/ha in the test on Digitaria sanguinalis (480 h, 20 DAT, flufenacet solo 62.5 gai/ha) was 10%; with Avena fatua (setting [5]), 60%; in the test with Polygonum convolvulus (sc, flufenacet SC 500 g/l solo 62.5 gai/ha, read-out: % activity) it was 0%. Also, the inhibition at 125 g/ha in the test on Digitaria sanguinalis (480 h, 20 DAT, flufenacet solo 125 gai/ha) was 20%; with Helianthus annuus (Helianthus annuus, 480 h, 20 DAT, flufenacet solo 125 gai/ha), 30%; in the test on Polygonum convolvulus (sc, flufenacet SC 500 g/l solo 125 gai/ha, read-out: % activity), 0%. The inhibition at 250 g/ha in the test on Digitaria sanguinalis (480 h, 20 DAT, flufenacet solo 250 gai/ha) came out at 65%. For the same compound, in the test with Echinocloa crus-galli (flufenacet solo 31.25 gai/ha), the inhibition at 31.25 g/ha is 25%.

As to `CCCCCCCCSC(=O)Oc1cc(Cl)nnc1-c1ccccc1` [pyridate], the inhibition at 112.5 g/ha in the test on Stellaria media (480 h, pyridate solo 112.5 gai/ha, 20 DAT, STEME) is 25%; in the test on Galium aparine [2] (pyridate solo 112.5 gai/ha) it was 40%. The inhibition at 450 g/ha in the test with Stellaria media (480 h, pyridate solo 450 gai/ha, 20 DAT, STEME) is 55%; with Helianthus annuus (Helianthus annuus, 480 h, pyridate solo 450 gai/ha, 20 DAT, HELAN), 70%. Also, the inhibition at 900 g/ha in the test with Stellaria media (480 h, pyridate solo 900 gai/ha, 20 DAT, STEME) came out at 70%. The pest or weed control at 112.5 g/ha in the test on Galium aparine [2] (solo pyridate (WP 45%) 112.5 gai/ha) was 40%. Moreover, the pest or weed control at 225 g/ha with Galium aparine [2] (solo pyridate (WP 45%) 225 gai/ha) was determined as 85%. The inhibition at 225 g/ha in the test on Galium aparine [2] (pyridate solo 225 gai/ha) is 85%; with Helianthus annuus (Helianthus annuus, 480 h, pyridate solo 225 gai/ha, 20 DAT, HELAN) it was 60%; in the test with Echinocloa crus-galli (pyridate solo 225 gai/ha, ECHCG), 30%.
